Data as given in patent publication US20240239799A1, “(S)-1-(5-((PYRIDIN-3-YL)THIO)PYRAZIN-2-YL)-4'H,6'H-SPIRO[PIPERIDINE-4,5'-PYRROLO [1,2-B]PYRAZOL]-4'-AMINE DERIVATIVES AND SIMILAR COMPOUNDS AS SHP2 INHIBITORS FOR THE TREATMENT OF E.G. CANCER” (C.N.C.C.S. S.C.A.R.L. COLLEZIONE NAZIONALE DEI COMPOSTI …, priority 2021, published 2024).
Where two headings read alike, the source gives them in different places.

Legend:
[1] = target: T1, SHP-2 enzyme (Met1-Leu525) (Homo sapiens, UniProt Q06124); test: SHP2 inhibition enzymatic assay (DiFMUP substrate, IRS1 peptide activation); type: biochemical; details: 0.5 nM SHP-2, 500 nM IRS1 peptide, 75 μM DiFMUP; read-out: SHP2wt - IC50
T1 construct: synthetized by Origene, Met1-Leu525, cat #TP750155; purchased Origene TP750155
T1 sequence (Q06124 1-525): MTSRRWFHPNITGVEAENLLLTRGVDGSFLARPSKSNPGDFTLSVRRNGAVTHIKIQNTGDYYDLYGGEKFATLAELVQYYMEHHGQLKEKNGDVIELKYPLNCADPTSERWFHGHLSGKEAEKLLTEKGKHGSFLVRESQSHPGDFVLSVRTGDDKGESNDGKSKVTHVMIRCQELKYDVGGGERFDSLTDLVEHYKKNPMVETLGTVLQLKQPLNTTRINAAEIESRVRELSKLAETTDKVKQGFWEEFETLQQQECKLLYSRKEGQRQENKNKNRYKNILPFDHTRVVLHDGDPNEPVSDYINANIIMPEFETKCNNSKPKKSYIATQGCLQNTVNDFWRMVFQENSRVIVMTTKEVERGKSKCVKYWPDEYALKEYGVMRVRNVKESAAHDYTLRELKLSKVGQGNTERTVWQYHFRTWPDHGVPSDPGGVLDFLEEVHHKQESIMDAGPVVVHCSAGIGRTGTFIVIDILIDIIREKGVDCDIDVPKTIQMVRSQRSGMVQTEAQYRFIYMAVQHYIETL

[2] = tested on: phospho-ERK1/2 (Thr202/Tyr204) in KYSE-520 cells; test: Phospho-ERK cellular assay (TR-FRET); type: cell-based; details: KYSE-520 cells, 2 h at 37° C., read-out: pERK IC50
Procedure, shortened: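 KYSE-520 cells plated overnight, then exposed to compound for 2 h at 37° C and lysed. Phospho-ERK1/2 (Thr202/Tyr204) detected by TR-FRET with Eu-cryptate and D2 antibodies after overnight incubation at rt. IC50 from four-parameter fit, normalised to DMSO (0%) and no-cell (100%) controls.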

[3] = target: T2, SHP2 (Avi-G4SG4S-PTPN11(1-525)) (Homo sapiens, UniProt Q06124); test: Binding kinetic assay by surface plasmon resonance (SPR); details: Biacore T200, single cycle kinetic, 1:1 Langmuir binding model; for koff: triplicate
T2 construct: (Avi-G4SG4S-PTPN11(1-525)); purchased Viva Biotech Ltd
T2 sequence (Q06124 1-525): T1 sequence (Q06124 1-525)
Method: A binding assay for measuring SHP2 inhibitors binding kinetic was developed using a Biacore T200 Instrument (Cytiva, Sweden). […] Data analysis was performed by Biacore T200 Evaluation software (Cytiva), and kinetic parameters were evaluated by a global fitting according to a 1:1 Langmuir binding model. Each molecule was tested in triplicate on separate flow channels.

Row | SMILES | IC50 [1] [nM] | IC50 ([2]; Homo sapiens, KYSE-520, 2 h) [nM] | Residence time 1/koff SPR [3] [s] | koff [3] [s⁻¹] | IC50 [2] [nM]
1 | N[C@@H]1c2c(F)cnn2CC12CCN(c1cnc(Sc3ccn4ccnc4c3Cl)cn1)CC2 [Example 49, (S)-1-(5-((8-chloroimidazo[1,2-a]pyridin-7-yl)thio)pyrazin-2-yl)-3′-fluoro-4′H,6′H-spiro[piperidine-4,5′-pyrrolo[1,2-b]pyrazol]-4′-amine] | ≤ 50 | < 100 | 14493 | 6.9e-05 | 
2 | Nc1nccc(Sc2cnc(N3CCC4(CC3)Cn3ncc(Cl)c3[C@H]4N)cn2)c1Cl [Example 7, (S)-1-(5-((2-amino-3-chloropyridin-4-yl)thio)pyrazin-2-yl)-3′-chloro-4′H,6′H-spiro[piperidine-4,5′-pyrrolo[1,2-b]pyrazol]-4′-amine] | ≤ 50 | < 100 | 3185 | 0.000314 | 
3 | Nc1nccc(Sc2cnc(N3CCC4(CC3)Cn3nccc3[C@H]4N)c3cncn23)c1Cl [Example 19, (S)-1-(5-((2-amino-3-chloropyridin-4-yl)thio)imidazo[1,5-a]pyrazin-8-yl)-4′H,6′H-spiro[piperidine-4,5′-pyrrolo[1,2-b]pyrazol]-4′-amine] | ≤ 50 | < 100 | 5464 | 0.000183 | 
4 | Cn1c(N2CCC3(CC2)Cn2nccc2[C@H]3N)nc2nc(Sc3ccnc(N)c3Cl)cnc21 [Example 74, (S)-1-(5-((2-amino-3-chloropyridin-4-yl)thio)-1-methyl-1H-imidazo[4,5-b]pyrazin-2-yl)-4′H,6′H-spiro[piperidine-4,5′-pyrrolo[1,2-b]pyrazol]-4′-amine] | 50 to 300 | > 500 |  |  | 
5 | Cc1nc(N2CCC3(CC2)Cn2nccc2[C@H]3N)c(Cl)c(=O)n1-c1cccc(Cl)c1Cl (single isomer, unassigned) [Example 78a] | ≤ 50 |  |  |  | 100 to 500
6 | N[C@@H]1c2ccnn2CC12CCN(c1ncc(Sc3ccnc4c3OC[C@H]3CC5(CC5)CN43)n3cncc13)CC2 [Example 24, (S)-1-(5-(((R)-6a′,7′-dihydro-6′H,9′H-spiro[cyclopropane-1,8′-pyrido[3,2-b]pyrrolo[1,2-d][1,4]oxazin]-4′-yl)thio)imidazo[1,5-a]pyrazin-8-yl)-4′H,6′H-spiro[piperidine-4,5′-pyrrolo[1,2-b]pyrazol]-4′-amine] | 50 to 300 | > 500 |  |  | 
7 | Nc1nc(N2CCC3(CC2)Cn2nncc2[C@H]3N)cnc1Sc1ccnc(N)c1Cl [Example 37, (S)-1-(6-amino-5-((2-amino-3-chloropyridin-4-yl)thio)pyrazin-2-yl)-4′H,6′H-spiro[piperidine-4,5′-pyrrolo[1,2-c][1,2,3]triazol]-4′-amine] | ≤ 50 | 100 to 500 |  |  | 
8 | N[C@@H]1c2ccnn2CC12CCN(c1cnc(Sc3ccnc4c(F)cccc34)cn1)CC2 [Example 79, (S)-1-(5-((8-fluoroquinolin-4-yl)thio)pyrazin-2-yl)-4′H,6′H-spiro[piperidine-4,5′-pyrrolo[1,2-b]pyrazol]-4′-amine] | ≤ 50 | < 100 |  |  | 
9 | Nc1nccc(Sc2ccc3nc(N4CCC5(CC4)Cn4nccc4[C@H]5N)cnc3n2)c1Cl [Example 73, (S)-1-(6-((2-amino-3-chloropyridin-4-yl)thio)pyrido[2,3-b]pyrazin-2-yl)-4′H,6′H-spiro[piperidine-4,5′-pyrrolo[1,2-b]pyrazol]-4′-amine] | ≤ 50 | < 100 |  |  | 
10 | Nc1nccc(Sc2cnc(N3CCC4(CC3)Cn3nc(CO)c(CO)c3[C@H]4N)c3cncn23)c1Cl [Example 28, (S)-(4′-amino-1-(5-((2-amino-3-chloropyridin-4-yl)thio)imidazo[1,5-a]pyrazin-8-yl)-4′H,6′H-spiro[piperidine-4,5′-pyrrolo[1,2-b]pyrazole]-2′,3′-diyl)dimethanol] | 50 to 300 | < 100 |  |  | 
11 | Cc1nc(N2CCC3(CC2)Cn2nccc2[C@H]3N)c(Cl)c(=O)n1-c1cccc(Cl)c1Cl (single isomer, unassigned) [Example 78b] | > 300 |  |  |  | > 500
12 | N[C@@H]1c2ccnn2CC12CCN(c1cnc(Sc3ccn4c([N+](=O)[O-])cnc4c3Cl)cn1)CC2 [Example 52, (S)-1-(5-((8-chloro-3-nitroimidazo[1,2-a]pyridin-7-yl)thio)pyrazin-2-yl)-4′H,6′H-spiro[piperidine-4,5′-pyrrolo[1,2-b]pyrazol]-4′-amine] | ≤ 50 | < 100 |  |  | 
13 | Nc1nccc(Sc2cnc(N3CCC4(CC3)Cn3nncc3[C@H]4N)n3ccnc23)c1Cl [Example 39, (S)-1-(8-((2-amino-3-chloropyridin-4-yl)thio)imidazo[1,2-c]pyrimidin-5-yl)-4′H,6′H-spiro[piperidine-4,5′-pyrrolo[1,2-c][1,2,3]triazol]-4′-amine] | ≤ 50 | 100 to 500 |  |  | 
14 | Cc1cn2ccc(Sc3ncc(N4CCC5(CC4)Cn4nccc4[C@H]5N)nc3N)c(Cl)c2n1 [Example 64, (S)-1-(6-amino-5-((8-chloro-2-methylimidazo[1,2-a]pyridin-7-yl)thio)pyrazin-2-yl)-4′H,6′H-spiro[piperidine-4,5′-pyrrolo[1,2-b]pyrazol]-4′-amine] | ≤ 50 | < 100 |  |  | 
15 | N[C@@H]1c2ccnn2CC12CCN(c1cnc(Sc3ccnc4c3OC[C@@H]3CC5(CC5)CN43)cn1)CC2 [Example 25, (S)-1-(5-(((S)-6a′,7′-dihydro-6′H,9′H-spiro[cyclopropane-1,8′-pyrido[3,2-b]pyrrolo[1,2-d][1,4]oxazin]-4′-yl)thio)pyrazin-2-yl)-4′H,6′H-spiro[piperidine-4,5′-pyrrolo[1,2-b]pyrazol]-4′-amine] | ≤ 50 | < 100 |  |  | 
16 | CNC(=O)c1ccn(-c2nccc(Sc3cnc(N4CCC5(CC4)Cn4nccc4[C@H]5N)cn3)c2Cl)c1 [Example 67, (S)-1-(4-((5-(4′-amino-4′H,6′H-spiro[piperidine-4,5′-pyrrolo[1,2-b]pyrazol]-1-yl)pyrazin-2-yl)thio)-3-chloropyridin-2-yl)-N-methyl-1H-pyrrole-3-carboxamide] | ≤ 50 | < 100 |  |  | 
17 | N[C@@H]1c2ccnn2CC12CCN(c1cnc3c(-c4ccnc(-n5cccn5)c4Cl)n[nH]c3n1)CC2 [Example 71, (S)-1-(3-(3-chloro-2-(1H-pyrazol-1-yl)pyridin-4-yl)-1H-pyrazolo[3,4-b]pyrazin-6-yl)-4′H,6′H-spiro[piperidine-4,5′-pyrrolo[1,2-b]pyrazol]-4′-amine] | ≤ 50 | 100 to 500 |  |  | 
18 | CN(C)C(=O)c1cn2ccc(Sc3cnc(N4CCC5(CC4)Cn4nccc4[C@H]5N)cn3)c(Cl)c2n1 [Example 68, (S)-7-((5-(4′-amino-4′H,6′H-spiro[piperidine-4,5′-pyrrolo[1,2-b]pyrazol]-1-yl)pyrazin-2-yl)thio)-8-chloro-N,N-dimethylimidazo[1,2-a]pyridine-2-carboxamide] | ≤ 50 | < 100 |  |  | 
19 | Nc1nccc(Sc2cnc(N3CCC4(CC3)Cn3cnnc3[C@H]4N)cn2)c1Cl [Example 42, (S)-1-(5-((2-amino-3-chloropyridin-4-yl)thio)pyrazin-2-yl)-5′H,7′H-spiro[piperidine-4,6′-pyrrolo[2,1-c][1,2,4]triazol]-7′-amine] | 50 to 300 | > 500 |  |  | 
20 | Cn1c(N2CCC3(CC2)Cn2nccc2[C@H]3N)nc2[nH]nc(-c3ccnc(N)c3Cl)c2c1=O [Example 46, (S)-3-(2-amino-3-chloropyridin-4-yl)-6-(4′-amino-4′H,6′H-spiro[piperidine-4,5′-pyrrolo[1,2-b]pyrazol]-1-yl)-5-methyl-1,5-dihydro-4H-pyrazolo[3,4-d]pyrimidin-4-one] | ≤ 50 | < 100 |  |  | 
21 | N[C@@H]1c2ccnn2CC12CCN(c1ccc(Sc3cccc(Cl)c3Cl)nc1)CC2 [Example 84, (S)-1-(6-((2,3-dichlorophenyl)thio)pyridin-3-yl)-4′H,6′H-spiro[piperidine-4,5′-pyrrolo[1,2-b]pyrazol]-4′-amine] | ≤ 50 | < 100 |  |  | 
22 | Cc1nc(N2CCC3(CC2)Cn2nccc2[C@H]3N)c(Cl)c(=O)n1-c1cccc(Cl)c1Cl [Example 78, (S)-6-(4′-amino-4′H,6′H-spiro[piperidine-4,5′-pyrrolo[1,2-b]pyrazol]-1-yl)-5-chloro-3-(2,3-dichlorophenyl)-2-methylpyrimidin-4(3H)-one] | ≤ 50 | 100 to 500 |  |  | 
